Laboratory results taken from the NIST ThermoML archive (doi:10.1021/je400463n).

Test: mn = molality of the nth substance listed, in mol/kg
Details: 100 kPa, Liquid, Pycnometric method

CCCCCCCCCCCC[N+](C)(CCO)CCO.[Br-] [N,N-bis(2-hydroxyethyl)-N-methyldodecan-1-aminium bromide] + O
mass density [kg/m3]
Details	293.15 K	298.15 K	303.15 K	308.15 K	313.15 K	318.15 K
m1 = 0.00497	998.465	997.294	995.89	994.266	992.443	990.43
m1 = 0.00607	998.521	997.349	995.942	994.317	992.492	990.478
m1 = 0.00698	998.568	997.394	995.986	994.359	992.533	990.518
m1 = 0.00805	998.622	997.446	996.036	994.408	992.58	990.564
m1 = 0.00909	998.675	997.498	996.086	994.456	992.626	990.609
m1 = 0.01002	998.722	997.544	996.13	994.499	992.667	990.649
m1 = 0.01109	998.774	997.597	996.18	994.548	992.714	990.695
m1 = 0.01202	998.818	997.641	996.222	994.59	992.755	990.735
m1 = 0.01306	998.867	997.686	996.268	994.637	992.801	990.78
m1 = 0.01414	998.915	997.734	996.315	994.681	992.847	990.825
m1 = 0.01505	998.953	997.771	996.353	994.719	992.884	990.862
m1 = 0.01609	998.993	997.811	996.394	994.756	992.923	990.9
m1 = 0.01815	999.08	997.897	996.476	994.837	993.001	990.98
m1 = 0.02008	999.16	997.976	996.554	994.913	993.076	991.051
m1 = 0.02518	999.367	998.178	996.752	995.11	993.267	991.242
m1 = 0.03023	999.571	998.38	996.95	995.305	993.46	991.431
m1 = 0.03525	999.778	998.58	997.146	995.497	993.649	991.62
m1 = 0.04028	999.983	998.782	997.344	995.692	993.84	991.807
m1 = 0.04512	1000.19	998.981	997.539	995.884	994.027	991.991
m1 = 0.05025	1000.4	999.187	997.74	996.082	994.223	992.184

CCCCCCCCCCCC[N+](C)(C)CCO.[Br-] [dodecyl(2-hydroxyethyl)dimethylammonium bromide] + O
mass density [kg/m3]
Details	293.15 K	298.15 K	303.15 K	308.15 K	313.15 K	318.15 K
m1 = 0.00798	998.5	997.328	995.92	994.291	992.462	990.446
m1 = 0.009	998.537	997.364	995.954	994.324	992.494	990.476
m1 = 0.01003	998.574	997.4	995.989	994.356	992.525	990.506
m1 = 0.01099	998.61	997.434	996.02	994.387	992.554	990.534
m1 = 0.01195	998.646	997.468	996.053	994.418	992.584	990.562
m1 = 0.013	998.684	997.503	996.087	994.451	992.616	990.593
m1 = 0.01395	998.716	997.536	996.117	994.481	992.644	990.621
m1 = 0.01498	998.747	997.566	996.147	994.511	992.676	990.65
m1 = 0.01595	998.774	997.591	996.174	994.537	992.701	990.679
m1 = 0.01793	998.831	997.647	996.226	994.588	992.75	990.727
m1 = 0.01991	998.886	997.7	996.278	994.637	992.8	990.776
m1 = 0.02489	999.025	997.835	996.408	994.766	992.92	990.893
m1 = 0.02994	999.159	997.963	996.535	994.888	993.043	991.013
m1 = 0.03493	999.299	998.101	996.667	995.018	993.17	991.136
m1 = 0.0399	999.439	998.235	996.795	995.142	993.291	991.254
m1 = 0.04493	999.582	998.372	996.93	995.274	993.419	991.378
m1 = 0.04982	999.714	998.5	997.055	995.395	993.537	991.49
m1 = 0.05488	999.856	998.637	997.186	995.52	993.66	991.613

CCCCCCCCCCCC[N+](C)(C)C.[Br-] [dodecyltrimethylammonium bromide] + O
mass density [kg/m3]
Details	293.15 K	298.15 K	303.15 K	308.15 K	313.15 K	318.15 K
m1 = 0.00608	998.345	997.176	995.77	994.144	992.319	990.306
m1 = 0.00707	998.368	997.197	995.79	994.162	992.336	990.321
m1 = 0.00796	998.388	997.216	995.807	994.178	992.35	990.334
m1 = 0.00897	998.411	997.237	995.827	994.196	992.367	990.349
m1 = 0.00999	998.434	997.259	995.847	994.214	992.383	990.364
m1 = 0.01096	998.456	997.28	995.866	994.232	992.399	990.379
m1 = 0.01199	998.48	997.302	995.886	994.25	992.416	990.394
m1 = 0.01299	998.503	997.324	995.905	994.268	992.432	990.409
m1 = 0.01398	998.524	997.343	995.923	994.286	992.448	990.424
m1 = 0.01503	998.543	997.363	995.942	994.304	992.466	990.44
m1 = 0.01596	998.556	997.376	995.956	994.32	992.48	990.454
m1 = 0.01802	998.592	997.408	995.986	994.345	992.506	990.48
m1 = 0.02001	998.622	997.435	996.013	994.37	992.532	990.503
m1 = 0.02494	998.695	997.505	996.077	994.432	992.587	990.558
m1 = 0.02994	998.775	997.58	996.147	994.498	992.647	990.616
m1 = 0.03501	998.85	997.647	996.212	994.557	992.706	990.671
m1 = 0.03995	998.918	997.712	996.271	994.615	992.76	990.721
m1 = 0.04505	998.991	997.78	996.336	994.675	992.817	990.774
m1 = 0.04973	999.061	997.845	996.396	994.733	992.871	990.824
m1 = 0.05498	999.145	997.923	996.47	994.801	992.935	990.883
m1 = 0.06001	999.217	997.992	996.535	994.86	992.993	990.938
